Test results taken from patent US20250206763A1, “ENPP1 INHIBITOR” (SHANGHAI QILU PHARMACEUTICAL RESEARCH AND DEVELOPMENT …, priority 2022, published 2025).

Molecular target: T1, human ENPP1 (Homo sapiens, UniProt P22413)
T1 construct: purchased Biovendor AP-18-081; host or cells: HEK293
T1 sequence (P22413 1-925): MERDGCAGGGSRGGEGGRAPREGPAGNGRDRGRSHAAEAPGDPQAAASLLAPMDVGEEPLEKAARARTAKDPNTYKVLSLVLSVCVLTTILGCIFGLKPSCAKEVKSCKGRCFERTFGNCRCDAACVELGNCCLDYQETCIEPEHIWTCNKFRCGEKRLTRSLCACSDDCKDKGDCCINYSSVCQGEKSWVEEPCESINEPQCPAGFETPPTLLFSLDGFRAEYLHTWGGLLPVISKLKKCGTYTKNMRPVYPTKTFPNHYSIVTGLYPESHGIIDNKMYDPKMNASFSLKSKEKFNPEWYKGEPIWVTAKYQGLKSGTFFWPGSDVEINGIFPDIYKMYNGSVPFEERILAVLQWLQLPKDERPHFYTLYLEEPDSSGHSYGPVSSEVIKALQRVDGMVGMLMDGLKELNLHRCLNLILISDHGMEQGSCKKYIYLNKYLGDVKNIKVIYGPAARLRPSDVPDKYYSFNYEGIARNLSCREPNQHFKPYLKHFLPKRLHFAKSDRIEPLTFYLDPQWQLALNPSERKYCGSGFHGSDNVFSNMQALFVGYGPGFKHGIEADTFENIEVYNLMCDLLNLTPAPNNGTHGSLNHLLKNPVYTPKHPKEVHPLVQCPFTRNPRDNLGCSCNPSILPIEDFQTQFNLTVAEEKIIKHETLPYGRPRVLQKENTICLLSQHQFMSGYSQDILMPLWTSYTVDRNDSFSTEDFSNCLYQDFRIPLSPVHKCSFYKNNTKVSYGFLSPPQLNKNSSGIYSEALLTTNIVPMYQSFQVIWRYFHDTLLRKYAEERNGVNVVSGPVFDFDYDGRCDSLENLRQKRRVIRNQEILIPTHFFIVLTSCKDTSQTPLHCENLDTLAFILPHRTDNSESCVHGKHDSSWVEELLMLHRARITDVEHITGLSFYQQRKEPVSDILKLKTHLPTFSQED
Test: In vitro enzyme activity assay: human ENPP1 enzymatic assay (cGAMP), AMP-Glo
Format: biochemical
Conditions: substrate cGAMP, AMP-Glo detection
Method: AMP-Glo Assay Kit (PROMEGA, V5012), ENPP-1-IN-1 (MCE, HY-129490), white opaque 384-well plate (Perkin Elmer, 6008289), Mammalian (non-canonical) CDN, cyclic[g(2′,5′)pA(3′,5′)p](referred to as cGAMP hereinafter, Invivogen, tlrl-nacga23-5), ENPP1 Protein Human HEK293 (Biovendor, AP-18-081).
• 1) Preparing 1× reaction buffer (Tris buffer), 1× enzyme buffer, and 1× substrate buffer; • 2) diluting the compounds using Echo550 and supplementing with DMSO; • 3) pre-loading 2.5 μL of enzyme solution on a reaction plate (adding 2.5 μL of buffer instead as negative control) and incubating it at room temperature; • 4) adding 2.5 μL of substrate solution to the system and incubating it at room temperature; • 5) adding 5 μL of AMP-Glo solution that has been allowed to cooled down to room temperature, centrifuging and reacting at room temperature, • 6) adding 10 μL of AMP Detection solution at room temperature, centrifuging and reacting at room temperature; and • 7) reading the plate using EnVision.

SMILES	IC50 [nM]
O=c1n(CC(F)(F)F)c2cnc3c4c(ccc3c2n1Cc1ccc(P(=O)(O)O)c(F)c1)OCO4 [Compound 23]	< 10
O=c1n(CCC(F)(F)F)c2cnc3c4c(ccc3c2n1Cc1ccc(P(=O)(O)O)c(F)c1)OCO4 [Compound 24]	< 10
O=c1n(Cc2ccc(P(=O)(O)O)c(F)c2)c2c3ccc4c(c3ncc2n1C1CC1)OCO4 [Compound 11]	< 10
O=c1[nH]c2cnc3c4c(ccc3c2n1Cc1ccc(P(=O)(O)O)c(Cl)c1)OCO4 [Compound 15]	< 10
O=c1[nH]c2cnc3c4c(ccc3c2n1Cc1c(F)cc(P(=O)(O)O)cc1F)OCO4 [Compound 2, (3,5-difluoro-4-((7-oxo-6,7-dihydro-8H-[1,3]dioxolo[4,5-h]imidazo[4,5-c]quinolin-8-yl)methyl)phenyl)phosphonic acid]	< 10
O=c1[nH]c2cnc3c4c(ccc3c2n1Cc1ccc(P(=O)(O)O)c(F)c1F)OCO4 [Compound 9]	< 10
CCn1c(=O)n(Cc2ccc(P(=O)(O)O)c(F)c2)c2c3ccc4c(c3ncc21)OCO4 [Compound 6, (4-((6-ethyl-7-oxo-6,7-dihydro-8H-[1,3]dioxolo[4,5-h]imidazo[4,5-c]quinolin-8-yl)methyl)-2-fluorophenyl)phosphonic acid]	< 10
O=c1n(CC2CCCC2)c2cnc3c4c(ccc3c2n1Cc1ccc(P(=O)(O)O)c(F)c1)OCO4 [Compound 20]	< 10
Cc1cc(P(=O)(O)O)c(F)cc1Cn1c(=O)[nH]c2cnc3c4c(ccc3c21)OCO4 [Compound 14]	< 10
O=c1n(CC(F)F)c2cnc3c4c(ccc3c2n1Cc1ccc(P(=O)(O)O)c(F)c1)OCO4 [Compound 7]	< 10
CC(C)(C)Cn1c(=O)n(Cc2ccc(P(=O)(O)O)c(F)c2)c2c3ccc4c(c3ncc21)OCO4 [Compound 22]	< 10
CC(C)n1c(=O)n(Cc2ccc(P(=O)(O)O)c(F)c2)c2c3ccc4c(c3ncc21)OCO4 [Compound 10]	< 10
O=c1n(CC2CCC2)c2cnc3c4c(ccc3c2n1Cc1ccc(P(=O)(O)O)c(F)c1)OCO4 [Compound 19]	< 10
O=c1[nH]c2cnc3c4c(ccc3c2n1Cc1ccc(P(=O)(O)O)c(Br)c1)OCO4 [Compound 16]	< 10
O=c1[nH]c2cnc3c4c(ccc3c2n1Cc1c(F)cc(P(=O)(O)O)c(F)c1F)OCO4 [Compound 12]	< 10
O=c1n(CCCF)c2cnc3c4c(ccc3c2n1Cc1ccc(P(=O)(O)O)c(F)c1)OCO4 [Compound 26]	< 10
CC(C)Cn1c(=O)n(Cc2ccc(P(=O)(O)O)c(F)c2)c2c3ccc4c(c3ncc21)OCO4 [Compound 18]	< 10
CC(c1ccc(P(=O)(O)O)c(F)c1)n1c(=O)[nH]c2cnc3c4c(ccc3c21)OCO4 (centres unmarked) [Compound 5-P2]	< 10
O=c1n(CCC2CCOCC2)c2cnc3c4c(ccc3c2n1Cc1ccc(P(=O)(O)O)c(F)c1)OCO4 [Compound 25]	< 10
O=c1[nH]c2cnc3c4c(ccc3c2n1Cc1ccc(P(=O)(O)O)cc1F)OCO4 [Compound 4, (3-fluoro-4-((7-oxo-6,7-dihydro-8H-[1,3]dioxolo[4,5-h]imidazo[4,5-c]quinolin-8-yl)methyl)phenyl)phosphonic acid]	< 10
Cn1c(=O)n(Cc2ccc(P(=O)(O)O)c(F)c2)c2c3ccc4c(c3ncc21)OCO4 [Compound 3, (2-fluoro-4-((6-methyl-7-oxo-6,7-dihydro-8H-[1,3]dioxolo[4,5-h]imidazo[4,5-c]quinolin-8-yl)methyl)phenyl)phosphonic acid]	< 10
O=c1[nH]c2cnc3c4c(ccc3c2n1Cc1cc(F)c(P(=O)(O)O)cc1Cl)OCO4 [Compound 13]	< 10
CC(c1ccc(P(=O)(O)O)c(F)c1)n1c(=O)[nH]c2cnc3c4c(ccc3c21)OCO4 (centres unmarked) [Compound 5-P1]	< 10
O=c1[nH]c2cnc3c4c(ccc3c2n1Cc1ccc(P(=O)(O)O)c2ccccc12)OCO4 [Compound 8]	10 to 50
O=c1[nH]c2cnc3c4c(ccc3c2n1Cc1cc(F)c(P(=O)(O)O)cc1F)OCO4 [Compound 17]	< 10
O=c1n(CC2CCC(F)(F)CC2)c2cnc3c4c(ccc3c2n1Cc1ccc(P(=O)(O)O)c(F)c1)OCO4 [Compound 21]	< 10

The next lines start with the values.

IC50 [nM]	SMILES
< 10	CCn1c(=O)n(Cc2ccc(S(C)(=N)=O)cc2)c2c3ccc4c(c3ncc21)OCO4 (centres unmarked) [Compound 45]
< 10	CC(C)CCn1c(=O)n(Cc2ccc(P(=O)(O)O)c(F)c2)c2c3ccc4c(c3ncc21)OCO4 [Compound 30]
< 10	Cn1c(=O)n(Cc2ccc(P(=O)(O)O)c(F)c2)c2c3cn[nH]c3ncc21 [Compound 60]
< 10	NS(=O)(=O)c1ccc(Cn2c(=O)[nH]c3cnc4c5c(ccc4c32)OCO5)c(F)c1 [Compound 39]
< 10	NS(=O)(=O)c1ccc(Cn2c(=O)[nH]c3cnc4c5c(ccc4c32)OCO5)nc1 [Compound 40]
< 10	CS(=O)(=O)CCn1c(=O)n(Cc2ccc(P(=O)(O)O)c(F)c2)c2c3ccc4c(c3ncc21)OCO4 [Compound 31]
< 10	CS(=N)(=O)c1ccc(Cn2c(=O)[nH]c3cnc4c5c(ccc4c32)OCO5)cc1F (centres unmarked) [Compound 42]
< 10	O=c1n(Cc2ccc(P(=O)(O)O)c(F)c2)c2c3ccc4c(c3ncc2n1C1CCOCC1)OCO4 [Compound 28]
< 10	O=c1n(Cc2ccc(P(=O)(O)O)c(F)c2)c2c3ccc4c(c3ncc2n1-c1ccccc1)OCO4 [Compound 52]
< 10	NS(=O)(=O)c1cc(F)c(Cn2c(=O)[nH]c3cnc4c5c(ccc4c32)OCO5)c(F)c1 [Compound 35]
< 10	COc1cc(Cn2c(=O)[nH]c3cnc4c5c(ccc4c32)OCO5)ccc1P(=O)(O)O [Compound 49]
< 10	O=c1n(CCCN2CCOCC2)c2cnc3c4c(ccc3c2n1Cc1ccc(P(=O)(O)O)c(F)c1)OCO4 [Compound 32]
< 10	O=c1n(Cc2ccc(P(=O)(O)O)c(F)c2)c2c3ccc4c(c3ncc2n1C(F)F)OCO4 [Compound 51]
< 10	CN(C)CCn1c(=O)n(Cc2ccc(P(=O)(O)O)c(F)c2)c2c3ccc4c(c3ncc21)OCO4 [Compound 33]
< 10	COc1cc2c(ncc3[nH]c(=O)n(Cc4ccc(P(=O)(O)O)c(F)c4)c32)c2c1OCO2 [Compound 55]
< 10	Cc1nc2cnc3c4c(ccc3c2n1Cc1ccc(P(=O)(O)O)c(F)c1)OCO4 [Compound 54, (2-fluoro-4-((7-methyl-8H-[1,3]dioxolo[4,5-h]imidazo[4,4-c]quinolin-8-yl)methyl)phenyl)phosphonic acid]
< 10	O=c1n(Cc2ccc(P(=O)(O)O)c(F)c2)c2c3ccc4c(c3ncc2n1C1CCCC1)OCO4 [Compound 27]
< 10	O=c1n(CCCOC2CCOCC2)c2cnc3c4c(ccc3c2n1Cc1ccc(P(=O)(O)O)c(F)c1)OCO4 [Compound 29]
< 10	NS(=O)(=O)c1ccc(Cn2c(=O)[nH]c3cnc4c5c(ccc4c32)OCO5)c(F)c1F [Compound 38]
< 10	O=c1[nH]c2cnc3c4c(ccc3c2n1Cc1c(F)cc(B(O)O)cc1F)OCO4 [Compound 46]
< 10	O=c1[nH]c2cnc3c4c(ccc3c2n1Cc1ccc(P(=O)(O)O)c(OCc2ccccc2)c1)OCO4 [Compound 61]
< 10	Cn1c(=O)n(Cc2ccc(S(C)(=N)=O)cc2)c2c3ccc4c(c3ncc21)OCO4 (centres unmarked) [Compound 44]
< 10	NS(=O)(=O)c1cnc(Cn2c(=O)[nH]c3cnc4c5c(ccc4c32)OCO5)c(F)c1 [Compound 63]
< 10	CCn1c(=O)n(Cc2c(F)cc(S(N)(=O)=O)cc2F)c2c3ccc4c(c3ncc21)OCO4 [Compound 41]
< 10	C[S@](=N)(=O)c1ccc(Cn2c(=O)[nH]c3cnc4c5c(ccc4c32)OCO5)cc1 (single isomer, unassigned) [Compound 43-P2]
< 10	CN(C)CCCn1c(=O)n(Cc2ccc(P(=O)(O)O)c(F)c2)c2c3ccc4c(c3ncc21)OCO4 [Compound 34]
< 10	Cn1c(=O)n(Cc2c(F)cc(B(O)O)cc2F)c2c3ccc4c(c3ncc21)OCO4 [Compound 47]
